From patent US10548911B2, “Small molecule anti-scarring agents” (UNIVERSITY OF ROCHESTER, priority 2014, dated 2020)
“Also recorded” adds a separate entry of the source.

Key:
phospho-Smad2 = assay: Western blot of phospho-Smad2/3 in TGFβ-treated human orbital fibroblasts; type: cell-based
Procedure: To further characterize the molecular mechanisms whereby salinomycin (and other polyether antibiotics) blocks TGFβ induced myofibroblast formation, activation kinetics were analyzed for some of the key mediators of TGFβ signaling (Weiss et al., “The TGFbeta superfamily signaling pathway,” Wiley Interdiscip. Rev. Dev. Biol. 2:47-63 (2013), which is hereby incorporated by reference in its entirety). Since salinomycin was first identified as a putative anti-scarring molecule by its ability to block TGFβ-induced Smad activity, the levels of phospho-Smad2 were analyzed by Western blot in cells treated with TGFβ or TGFβ plus salinomycin. […] The experiment was repeated, with samples being incubated for extended periods of time including 5, 24, 48 and 72 h hours (FIG. 5A, top panel).

[1] = tested on: TGFβ-induced myofibroblast formation in human fibroblasts; assay: Western blot of myofibroblast markers αSMA and calponin in TGFβ-treated human (TED orbital) fibroblasts; type: cell-based; details: for expression of αSMA and calponin: TGFβ; for expression of αSMA and calponin, dose dependence: 10-250 nM
Procedure: (§1) TED fibroblasts were treated with TGFβ (1 ng/ml) in the presence or absence of 10-250 nM salinomycin for 72 hours to allow formation of myofibroblasts. After 72 hours, cells were harvested and analyzed by Western blot. As expected, the fibroblasts robustly responded to TGFβ, expressing high levels of αSMA and calponin (FIG. 2A). […] At 50 nM salinomycin, expression of αSMA was reduced by 4-fold over TGFβ treatment alone. Furthermore, at 250 nM salinomycin, αSMA expression was reduced by approximately 16-fold, to levels at or below untreated fibroblasts. […] Another key role of myofibroblasts in scar formation is the production of collagen. Whether salinomycin could block myofibroblast collagen production was assessed. Cells were treated with TGFβ and salinomycin as above and after 72 hours, culture medium was collected and analyzed for collagen levels using a specific collagen I antibody and slot blot analysis.
To test these four compounds, human fibroblasts were treated with TGFβ in the absence or presence of 250 nM of either salinomycin, narasin, clioquinol or monensin for 72 hours. After treatment, cell lysates were harvested and analyzed for the presence of the myofibroblast markers, αSMA and calponin (FIG. 3B).

[2] = tested on: collagen production of TGFβ induced myofibroblasts; assay: Collagen production assay (collagen I slot blot of culture supernatant); type: cell-based, human; details: 72 hours
Procedure: Cell culture supernatant was collected and transferred (5-20 ul) to PVDF membrane using a slot blot device. The membrane was blocked and probed with a goat anti-collagen antibody (1:5000), washed and incubated with a donkey anti-goat antibody conjugated to HRP. Band intensities were quantified using ImageLab software and values were normalized to vehicle treatments.
as §1

[3] = tested on: TGFβ-induced luciferase activity; assay: Spectrum collection small molecule screen with TGFβ-dependent SBE-luciferase HEK293FT reporter cell line; type: cell-based, human; details: HEK293FT-luc reporter line
Description: The minimal thymidine kinase promoter was amplified by PCR with the following forward and reverse primers, of which the forward primer contained four tandem Smad binding elements (SBE):
Restriction sites in the primers are underlined. The resultant PCR product was TOPO cloned (Invitrogen) and the correct insert was verified by DNA sequencing. The construct was digested with SacI-HindIII and the SBEx4-TK insert was purified and ligated with the pGL4.15 vector (Promega). Clones were verified by restriction digest and then tested for TGFβ responsiveness in transient transfections of 293FT cells. […] Clones were selected by treatment with 200 μg/ml hygromycin. 20 clones were selected and screened for TGFβ-induced luciferase activity. One clone that was robustly responsive was subsequently used in the small molecule screen.
Excessive scarring results from the formation of too many myofibroblasts and the production of too much extracellular matrix material such as collagen. Since TGFβ drives the formation of myofibroblasts in part through activating the Smad pathway, a reporter construct was designed to serve as a measure of TGFβ-induced Smad activity (FIG. 1A). Four tandem Smad binding elements (SBE) were inserted upstream of the minimal thymidine kinase promoter. The SBEx4-TK promoter was inserted into the pGL4.15 vector which contains a destabilized firefly luciferase gene and the hygromycin resistance gene. The pSBEx4-TK-luc-Hygro plasmid was then introduced into HEK293FT cells by lipofection. Stable clones were generated and screened for TGFβ induced luciferase activity. One clone was selected that consistently gave a 15 to 20-fold induction of luciferase activity when cells were treated with TGFβ for 24 hours (FIG. 1B).
To find compounds that inhibit TGFβ activity and thus may be novel anti-scarring compounds, the Spectrum collection of 2,300 small molecules was screened with the cell line. […] Salinomycin, an antibiotic produced from Streptomyces albus is used as coccidiostat agent in animal feed (Knirschova et al., “Multiple regulatory genes in the salinomycin biosynthetic gene cluster of Streptomyces albus CCM 4719,” Folia Microbiologica 52:359-365 (2007), which is hereby incorporated by reference in its entirety). […] Thus, further investigation was made to assess the use of salinomycin as an anti-scarring agent.

With CC[C@@H](C(=O)[C@@H](C)[C@@H](O)[C@H](C)[C@@H]1O[C@@H]([C@@H](CC)C(=O)O)CC[C@@H]1C)[C@H]1O[C@]2(C=C[C@@H](O)[C@]3(CC[C@@](C)([C@H]4CC[C@](O)(CC)[C@H](C)O4)O3)O2)[C@H](C)C[C@@H]1C [salinomycin] the “reduction of TGFβ induced phospho-Smad2/3 levels” value (phospho-Smad2; 250 nM, 5 hours) was 2 fold, the “reduction of phospho-Smad2 levels compared to TGFβ alone” value (phospho-Smad2; 250 nM, 5 hours) was 80% and the “reduction of TGFβ induced phospho-Smad2/3 levels” value (phospho-Smad2; 250 nM, 24 hours) was 8-10 fold. The “reduction of TGFβ induced phospho-Smad2/3 levels” value (phospho-Smad2; 250 nM, 24 hours, listed as Salinomycin) was 5 fold, the phospho-Smad2 levels (phospho-Smad2; early time points (30 sec-1 hour), TGFβ) was “did not affect phospho-Smad2 levels” and the “reduction of αSMA expression over TGFβ treatment alone” value ([1]; 50 nM, TGFβ 1 ng/ml, 72 hours) was 4 fold. The “reduction of αSMA expression over TGFβ treatment alone” value ([1]; 250 nM, TGFβ 1 ng/ml, 72 hours) was “approximately 16 fold”, the “expression of αSMA and calponin” value ([1]; 250 nM, 72 hours) was “lower than vehicle levels” and the “expression of αSMA and calponin” value ([1]; 250 nM, 72 hours, listed as Salinomycin) was “inhibited expression of αSMA and calponin”. The “TGFβ-dependent expression of alpha smooth muscle actin, calponin and collagen” value ([1]; 250 nM, primary human fibroblasts) was “blocked”, the “expression of αSMA and calponin, dose dependence” value ([1]; TGFβ 1 ng/ml, 72 hours) was “dose dependent manner” and the “expression of αSMA and calponin, dose dependence” value ([1]; TGFβ 1 ng/ml, 72 hours, listed as Salinomycin) was “dose-dependent decrease”. The “expression of myofibroblast markers αSMA and calponin” value ([1]; 100 and 200 nM, TGFβ 1 ng/ml, 72 hours, densitometry) was “below baseline levels”, the collagen production ([2]; 10 nM) was “decreases” and the collagen production ([2]; 100 nM) was “at baseline levels”. For the same compound, the collagen production ([2]; 250 nM) was “below baseline levels”, the “collagen I levels, dose dependence” value ([2]; 10-250 nM) was “dose-dependent manner” and the “inhibition of TGFβ-induced luciferase activity, initial screen” value [3] was “blocked TGFβ-induced luciferase activity; also recorded: particularly potent at inhibiting luciferase activity”.
